Consider 23 compounds from ChEMBL document CHEMBL4390673, “Identification of Novel Coumestan Derivatives as Polyketide Synthase 13 Inhibitors against Mycobacterium tuberculosis. Part II” (J Med Chem, 2019).

Data set [1] can be described thus: in vitro. The settings on record: human, liver microsomes. Background: Microsomes from liver hold many membrane-bound enzymes, among them those of drug oxidation.
Description: Half life in human liver microsomes
Data set [2] in a line: in vitro. The settings on record: human, liver microsomes. This is another data set of the same source.
Description: Intrinsic clearance in human liver microsomes
The nature of data set [3]: in vitro. To be noted: human, liver microsomes. The source holds these as a separate data set.
Description: Intrinsic clearance in human liver measured from intrinsic clearance in human liver microsomes
Data set [4] in a line: in vitro. The settings on record: human, liver microsomes. The source holds these as a separate data set.
Description: Stability in human liver microsomes assessed as parent compound remaining measured after 60 mins
The test system of the next data set is Vero. The data set can be described thus: Cytotoxicity against African green monkey Vero cells by microplate alamar blue assay. Type of data set: cell-based. The settings on record: Chlorocebus sabaeus.
A short description of data set [5]: Selectivity index, ratio of IC50 for African green monkey Vero cells to MIC=. Type of data set: toxicity. The settings on record: read-out: Ratio IC50.
In data set [6] the test system is Mycobacterium tuberculosis. The data set can be described thus: Antitubercular activity against Mycobacterium tuberculosis H37Rv exposed to serially diluted serum from 100 mg/kg, po treated BALB/c mouse assessed as reduction in bacterial growth measured after 7 days by microplate alamar blue assay. Type of data set: functional, organism-based. (In general: The colour change of resazurin is a common sign of viable cells or microbes.)

Data set [7] concerns Mycobacterium tuberculosis. The data set can be described thus: Antitubercular activity against Mycobacterium tuberculosis H37Rv after 6 days by resazurin dye based fluorescence assay. To be noted: 144 h.
The subject of a further data set is Bacillus subtilis. The data set can be described thus: Growth inhibition of Bacillus subtilis 168. It counts as organism-based, subsp. subtilis str. 168.
Data set [8] concerns Escherichia coli. The data set can be described thus: Growth inhibition of Escherichia coli AB1157. It counts as organism-based. To be noted: in vivo.
For data set [9], the system named is Escherichia coli. The data set can be described thus: Growth inhibition of Escherichia coli DH5[alpha]. It counts as organism-based. The settings on record: in vivo.
Data set [10] relates to Mycobacterium tuberculosis. The data set can be described thus: Antitubercular activity against Mycobacterium tuberculosis H37Rv measured after 7 days under aerobic condition by resazurin dye based assay. It counts as functional. The settings on record: 168 h.
In data set [11] the test system is Mycobacterium tuberculosis. The data set can be described thus: Antitubercular activity against Mycobacterium tuberculosis H37Rv. It counts as functional.
For data set [12], the system named is Mycobacterium tuberculosis. The data set can be described thus: Antitubercular activity against Mycobacterium tuberculosis H37Rv measured after 7 days by alamar blue assay. Type of data set: functional. The settings on record: 168 h.
In data set [13] the test system is Mycobacterium tuberculosis. The data set can be described thus: Antitubercular activity against Mycobacterium tuberculosis H37Rv exposed to serially diluted serum from 10 mg/kg, po treated BALB/c mouse assessed as reduction in bacterial growth measured after 7 days by microplate alamar blue assay. It counts as functional, organism-based.
Data set [14] relates to Mycobacterium tuberculosis. The data set can be described thus: Bactericidal activity against Mycobacterium tuberculosis H37Rv assessed as reduction in colony forming units incubated for 14 days followed by replating on 7H11 agar plates and measured by broth dilution method. It counts as functional. (In general: Dilution methods test growth across graded concentrations, often in twofold steps.)

The nature of data set [15]: Cytotoxicity against human QSG7701 cells measured after 48 hrs by CellTiter 96 AQueous One Solution Cell Proliferation assay. It counts as cell-based. The settings on record: QSG7701, 48 h.
Another data set has as its system MRC5. The data set can be described thus: Cytotoxicity against human MRC5 cells measured after 48 hrs by CellTiter 96 AQueous One Solution Cell Proliferation assay. Type of data set: cell-based. The settings on record: MRC5, 48 h.
For another data set, the system named is HFL1. The data set can be described thus: Cytotoxicity against HFL1 cells measured after 48 hrs by CellTiter 96 AQueous One Solution Cell Proliferation assay. It counts as cell-based. The settings on record: Homo sapiens, HFL1, 48 h.
The test system of a further data set is HEK293. The data set can be described thus: Cytotoxicity against HEK293 cells measured after 48 hrs by CellTiter 96 AQueous One Solution Cell Proliferation assay. The settings on record: Homo sapiens, HEK293, 48 h. It counts as cell-based.
Another data set relates to Staphylococcus aureus. The data set can be described thus: Growth inhibition of Staphylococcus aureus Newman. The settings on record: in vivo. Type of data set: organism-based.
Data set [16] concerns Mycobacterium tuberculosis. The data set can be described thus: Antitubercular activity against Mycobacterium tuberculosis H37Rv exposed to 1:1024 diluted serum from 50 mg/kg, po treated BALB/c mouse assessed as reduction in bacterial growth measured after 7 days by microplate alamar blue assay. Type of data set: functional, organism-based.
Data set [17] relates to Mycobacterium tuberculosis. The data set can be described thus: Antitubercular activity against Mycobacterium tuberculosis H37Rv by microdilution method. Type of data set: functional.

Values after ≈ are worked out from the molar mass of the structure shown. Active and inactive are the calls of the source.

`CCOC(=O)c1c(-c2ccccc2)oc2ccc(O)c(CN3CCCCC3)c12`: the half-life in the data set “in vitro [1]” came to 53 min. Moreover, the CLint scaled in the data set “in vitro [2]” turned out to be 26.2 mL/min/kg; in the data set “in vitro [3]”, 23.6 mL/min/kg. Further, the share remaining at 1 h in “in vitro [4]” is 46.6%.
Regarding `CC1CCCCN1Cc1c(O)ccc2oc3c4ccccc4oc(=O)c3c12` (centres undefined), inhibition in the data set on Vero was half-maximal at 16 µg/mL (≈ 44 µM) (IC50). Moreover, the selectivity ratio in [5] turned out to be 16.
For `O=c1oc2ccc(O)cc2c2oc3ccc(O)c(CN4CCCCC4)c3c12`, in that order: 4 µg/mL (≈ 10.9 µM) and 8.
As to `CNC(=O)c1c(-c2ccc(O)cc2)oc2ccc(O)c(CN3CCCCC3)c12`, the outcome in data set [6] was Active. Also, the MIC in [7] worked out at 0.0313 µg/mL (≈ 0.0823 µM).
Compound `O=c1oc2ccccc2c2oc3ccc(O)c(CN4CCCC4)c3c12` registered an IC50 in the data set on Vero of 8 µg/mL (≈ 23.9 µM). For the same compound, the selectivity ratio in data set [5] is 16.
With `CN[C@H](CC(C)C)C(=O)N[C@H]1C(=O)N[C@@H](CC(N)=O)C(=O)N[C@H]2C(=O)N[C@H]3C(=O)N[C@H](C(=O)N[C@H](C(=O)O)c4cc(O)cc(O)c4-c4cc3ccc4O)[C@H](O)c3ccc(c(Cl)c3)Oc3cc2cc(c3O[C@@H]2O[C@H](CO)[C@@H](O)[C@H](O)[C@H]2O[C@H]2C[C@](C)(N)[C@H](O)[C@H](C)O2)Oc2ccc(cc2Cl)[C@H]1O` [VANCOMYCIN], the MIC in the data set with Bacillus subtilis, against Escherichia coli [8] and in the data set with Escherichia coli [9] was over 25 µg/mL throughout.
`CC(C)(C)c1cc(O)c(CN2CCCCC2)c2c1oc1c3cc(O)ccc3oc(=O)c12` showed a concentration for half-maximal inhibition (IC50) in the data set with Vero of 8 µg/mL (≈ 19 µM). In addition, the selectivity ratio in data set [5] was 64.
On to `CCOC(=O)c1c(-c2ccc(O)cc2)oc2ccc(O)c(CN3CCCCC3)c12`, for which, in “in vitro [3]”, the CLint scaled was found to be 66.3 mL/min/kg. Also, in the data set “in vitro [4]”, the fraction remaining at 1 h came out at 10.8%.
Regarding `C=CCCCCCCC[C@H]1C(=O)O[C@@H]1CCCCCNC(=O)c1ccc(N(C)C)cc1`, in data set [10], the MIC came to 0.68 µg/mL (≈ 1.59 µM).
`Cc1cc(O)c(CN2CCCCC2)c2c1oc1c3ccccc3oc(=O)c12`: inhibition with Vero was half-maximal at 8 µg/mL (≈ 22 µM) (IC50). The selectivity ratio in data set [5] stood at 64.
`CCOC(=O)c1c(-c2ccccc2)oc2ccc(O)c(CN3CCC(C)CC3)c12` had an MIC in [11] of 1 µg/mL (≈ 2.54 µM).
Compound `CCOC(=O)C1=C(NC(=O)c2c(F)c(F)c(F)c(F)c2F)SC2CN(CC)CCC12` (centres undefined) yielded an MIC in data set [12] of 0.23 µM (≈ 0.104 µg/mL).
In the data set “in vitro [1]”, `O=c1oc2ccccc2c2oc3ccc(O)c(CN4CCCCC4)c3c12` came in with a half-life of 21.4 min. Moreover, the CLint scaled in “in vitro [2]” stood at 64.9 mL/min/kg; in the data set “in vitro [3]” it was 58.4 mL/min/kg. This compound registered a fraction remaining at 1 h in the data set “in vitro [4]” of 14.5%.
The compound `O=C(O)Cc1ccccc1Nc1c(Cl)cccc1Cl` [DICLOFENAC] came in with a half-life in “in vitro [1]” of 11.9 min. The CLint scaled in “in vitro [3]” is 105 mL/min/kg.
As to `NNC(=O)c1ccncc1`, in [13], the outcome was Active.
In “in vitro [3]”, `C[C@]12CC[C@H]3[C@@H](CCC4=CC(=O)CC[C@@]43C)[C@@H]1CC[C@@H]2O` [TESTOSTERONE] showed a CLint scaled of 62.8 mL/min/kg. In the data set “in vitro [4]”, this compound gave an amount remaining at 1 h of 12.5%.
For the compound `O=c1oc2cc(O)ccc2c2oc3ccc(O)c(CN4CCCCC4)c3c12`, in data set [14], the MBC99 was in the range of 0.0039 to 0.0078 µg/mL. For the same compound, the IC50 is 40.1 µM in [15]; 4 µg/mL (≈ 10.9 µM) in the data set on Vero; over 50 µM with MRC5; over 50 µM with HFL1; over 50 µM with HEK293. Also, the selectivity ratio in [5] came to 1024. Also, the MIC against Staphylococcus aureus, with Bacillus subtilis, with Escherichia coli [8] and with Escherichia coli [9] was over 25 µg/mL in each case. In data set [16], the outcome was Active. Also, the fraction remaining at 1 h in “in vitro [4]” is 73.6%.
`CC(C)(C)c1cc(O)c(CN2CCCCC2)c2c1oc1c3ccccc3oc(=O)c12` had an IC50 in the data set with Vero of 16 µg/mL (≈ 39.5 µM). In addition, in data set [5], the selectivity ratio is 128 to 256.
Compound `CN(C)[C@@H]1C(O)=C(C(N)=O)C(=O)[C@@]2(O)C(O)=C3C(=O)c4c(O)cccc4[C@@](C)(O)[C@H]3C[C@@H]12` [TETRACYCLINE] returned an MIC in the data set with Bacillus subtilis of over 25 µg/mL.
In data set [17], `COC(=O)c1c(NC(=O)c2c(F)c(F)c(F)c(F)c2F)sc2c1CCCCC2` gave an MIC of 1 µM (≈ 0.419 µg/mL).
With `CC(C)(C)c1cc(O)c(CN2CCCCC2)c2c1oc1c3ccc(O)cc3oc(=O)c12`, the half-inhibitory concentration (IC50) was 34.1 µM in [15]; 8 µg/mL (≈ 19 µM) in the data set on Vero; 30.6 µM in the data set on MRC5; 22.3 µM with HFL1; 33.6 µM in the data set on HEK293. Moreover, in data set [5], the selectivity ratio is 2048. Moreover, the MIC with Bacillus subtilis, in the data set with Escherichia coli [8] and with Escherichia coli [9] was over 25 µg/mL throughout. In [6], the result was Active. Further, the outcome in [16] was inactive.
`CCOC(=O)c1c(NC(=O)c2c(F)c(F)c(F)c(F)c2F)sc(C(N)=O)c1C` returned an MIC in data set [17] of 0.5 µM (≈ 0.211 µg/mL).
On to `CC1CCN(Cc2c(O)ccc3oc4c5ccccc5oc(=O)c4c23)CC1`, for which the IC50 with Vero amounted to 16 µg/mL (≈ 44 µM). For the same compound, in [5], the selectivity ratio turned out to be 32.

In general, half-life refers to the time needed for the level to fall by half in the phase considered. The CLint scaled is the rate of metabolic loss divided by the concentration. As usually defined, the fraction remaining is what is left of the initial amount, in per cent. A word on the IC50: it is the concentration that inhibits the measured activity by half.
